Source: article PMC7058083, “Structural basis of ligand binding modes at the human formyl peptide receptor 2” (Nature Communications, 2020)
Where a chain is given by its changes, count along the chain named. Residues, ends and D or L forms follow the SMILES beside them. *: point of attachment. For = O=C*

Legend:
Test in all cases: Competition binding of fMLFK with WK(FITC)YMVm, flow cytometry on HEK293F cells
[1] = target: T1, wild-type (WT) and mutant FPR2 (Homo sapiens, UniProt P25090); conditions: FPR2 WT; mean ± s.e.m., n=5; SEM
T1 construct: expressed in transfected cells; host or cells: HEK293F
T1 sequence (P25090 1-351): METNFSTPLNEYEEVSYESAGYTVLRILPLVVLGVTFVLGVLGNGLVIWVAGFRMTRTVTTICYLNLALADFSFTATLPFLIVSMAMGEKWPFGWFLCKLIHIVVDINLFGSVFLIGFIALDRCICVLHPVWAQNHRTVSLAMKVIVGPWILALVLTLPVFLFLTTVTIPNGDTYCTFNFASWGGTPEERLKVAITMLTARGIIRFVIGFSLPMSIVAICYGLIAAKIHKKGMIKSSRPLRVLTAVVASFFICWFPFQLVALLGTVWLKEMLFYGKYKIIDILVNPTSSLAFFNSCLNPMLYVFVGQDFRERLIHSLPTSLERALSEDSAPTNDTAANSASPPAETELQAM
Method: (§1) Flag-tagged wild-type and mutant FPR2s were cloned into the pTT5 vector and expressed in HEK293F cells. The cells were harvested, and washed with Hanks’ Balanced Salt Solution (HBSS) buffer supplemented with 0.5% bovine serum albumin and 20 mM HEPES, pH 7.4. The cells were then resuspended in the same buffer to the final concentration of 1 × 10^6 cells per ml. The cell-surface expression was measured as mentioned above. […] Mean fluorescent intensity of each well was then read by a FCM (flow cytometry) reader (Millipore). […] For competitive binding of fMLFK, cells were plated in 96-well plates (100,000 cells per well), and incubated with WK(FITC)YMVm at 4 °C for 1 h. The following concentrations of WK(FITC)YMVm were used: 10 nM (wild type, L81^2.60F, E89G, and V105^3.32A), 30 nM (D281^7.32G), 40 nM (H102^3.29F, V160^4.60A, L268^ECL3A, N285^7.36A, and F292^7.43A), and 100 nM (L164^4.64A and T177A). Then increasing concentrations of fMLFK (100 nM–1 mM) were added, and incubated for another 1 h on ice. Mean fluorescent intensity values were measured by flow cytometry. Data were analyzed using Prism 7.0.

[2] = target: T2, wild-type (WT) and mutant FPR2 (Homo sapiens, UniProt P25090, F292A); conditions: FPR2 F292A; mean ± s.e.m., n=3; SEM
T2 construct: expressed in transfected cells; host or cells: HEK293F
T2 sequence (P25090 1-351 F292A): T1 sequence (P25090 1-351) with F292A
Method: as §1

[3] = target: T3, wild-type (WT) and mutant FPR2 (Homo sapiens, UniProt P25090, D281G); conditions: FPR2 D281G; mean ± s.e.m., n=3; SEM
T3 construct: expressed in transfected cells; host or cells: HEK293F
T3 sequence (P25090 1-351 D281G): T1 sequence (P25090 1-351) with D281G
Method: as §1

[4] = target: T4, wild-type (WT) and mutant FPR2 (Homo sapiens, UniProt P25090, V160A); conditions: FPR2 V160A; mean ± s.e.m., n=3; SEM
T4 construct: expressed in transfected cells; host or cells: HEK293F
T4 sequence (P25090 1-351 V160A): T1 sequence (P25090 1-351) with V160A
Method: as §1

pKi, competition binding [1]: 4.08 ± 0.19
pKi, competition binding [2]: 4.54 ± 0.11
pKi, competition binding [3]: 4.66 ± 0.16
pKi, competition binding [4]: 4.16 ± 0.14
Compound: CSCC[C@H](NC=O)C(=O)N[C@@H](CC(C)C)C(=O)N[C@@H](Cc1ccccc1)C(=O)N[C@@H](CCCCN)C(=O)O [fMLFK] (For-MLFK-OH)
